Data taken from the supplement of paper PMC9663587.

Experiments:
Test in all cases: GRmax, 72 h; higher = less effect;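 further: breast cell lines in 384-well plates, nine doses across a 10^4 range, Dye Drop imaging of viable cells vs DMSO and time-zero plates, GR 0 means no net growth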
[1] = test system: 184A1
[2] = test system: BT20
[3] = test system: CAL120
[4] = test system: EVSAT
[5] = test system: HCC1806
[6] = test system: HCC70
[7] = test system: MCF7
[8] = test system: MDAMB468
[9] = test system: SUM159
[10] = test system: SUM229PE
[11] = test system: SUM44PE
[12] = test system: UACC812
[13] = test system: ZR751

Structure (SMILES) | GRmax, 72 h [1] | GRmax, 72 h [2] | GRmax, 72 h [3] | GRmax, 72 h [4] | GRmax, 72 h [5] | GRmax, 72 h [6] | GRmax, 72 h [7] | GRmax, 72 h [8] | GRmax, 72 h [9] | GRmax, 72 h [10] | GRmax, 72 h [11] | GRmax, 72 h [12] | GRmax, 72 h [13]
CCNC(=O)c1noc(-c2cc(C(C)C)c(O)cc2O)c1-c1ccc(CN2CCOCC2)cc1 [Luminespib/NVP-AUY922] (max 1 µM) | 0.0336 GR | -0.049 GR | -0.115 GR | -0.29 GR | -0.175 GR | -0.583 GR | 0.0015 GR | -0.174 GR | -0.0637 GR | -0.293 GR | -0.483 GR | -0.521 GR | 0.0576 GR
COc1cc2nccc(Oc3ccc(NC(=O)C4(C(=O)Nc5ccc(F)cc5)CC4)cc3)c2cc1OC [Cabozantinib] (max 10 µM) | 0.121 GR | -0.203 GR | 0.257 GR | 0.654 GR | 0.691 GR | -0.0911 GR | -0.0993 GR | 0.423 GR | 0.257 GR | 0.199 GR | 0.288 GR | 0.298 GR | 1.06 GR
NC(=O)Nc1cc(-c2cccc(F)c2)sc1C(=O)N[C@H]1CCCNC1 [AZD7762] (max 10 µM) | -0.513 GR | -0.578 GR | -0.495 GR | -0.319 GR | -0.482 GR | -0.7 GR | -0.186 GR | -0.586 GR | -0.278 GR | -0.357 GR | -0.704 GR | -0.8 GR | -0.0705 GR
CN(C)C(=O)c1cc2cnc(Nc3ccc(N4CCNCC4)cn3)nc2n1C1CCCC1 [LEE011/Ribociclib] (max 10 µM) | 0.11 GR | 0.092 GR | 0.632 GR | 0.616 GR | 0.682 GR | 1.04 GR | 0.31 GR | 0.947 GR | 0.436 GR | 0.576 GR | 0.378 GR | 0.0889 GR | 0.381 GR
COc1cccc2c1C(=O)c1c(O)c3c(c(O)c1C2=O)C[C@@](O)(C(=O)CO)C[C@@H]3O[C@H]1C[C@H](N)[C@H](O)[C@H](C)O1 [Doxorubicin] (max 3.162 µM) | 0.028 GR | -0.481 GR | -0.247 GR | -0.192 GR | -0.324 GR | -0.779 GR | -0.286 GR | -0.339 GR | -0.361 GR | -0.125 GR | -0.677 GR | -0.919 GR | -0.0018 GR
CCc1cnn2c(NCc3ccc[n+]([O-])c3)cc(N3CCCC[C@H]3CCO)nc12 (max 1 µM) | -0.33 GR | -0.698 GR | -0.132 GR | 0.0834 GR | -0.459 GR | -0.909 GR | -0.249 GR | -0.413 GR | -0.122 GR | -0.21 GR | -0.925 GR | -0.942 GR | -0.406 GR
CN(C)C/C=C/C(=O)Nc1ccc(C(=O)N2CCC[C@@H](Nc3ncc(Cl)c(-c4c[nH]c5ccccc45)n3)C2)cc1 [THZ531] (max 1 µM) | -0.377 GR | 0.637 GR | -0.0211 GR | 0.0226 GR | -0.489 GR | -0.933 GR | -0.367 GR | -0.153 GR | 0.627 GR | -0.146 GR | -0.203 GR | 0.556 GR | -0.242 GR
CN(C)C/C=C/C(=O)Nc1ccc(O[C@@H]2CCC[C@@H](Nc3ncc(Cl)c(-c4c[nH]c5ccccc45)n3)C2)cc1 [BSJ-01-175] (max 10 µM) | -0.452 GR | -0.669 GR | -0.272 GR | -0.512 GR | -0.592 GR | -0.884 GR | -0.627 GR | -0.617 GR | -0.473 GR | -0.77 GR | -0.873 GR | -0.92 GR | -0.346 GR
